# Columns and labels:
# [1] = system: Gi-mediated signalling through chemokine receptors; conditions: ref [24]; cited from earlier work
# From the text: (§1) It has been proposed that this chemotactic signalling might play a role during HIV infection in vivo, possibly by recruiting susceptible T-cells to sites of viral replication. In other retroviruses envelope/receptor interactions are known to be mitogenic and this may facilitate nuclear translocation and integration of the provirus. In HIV, however, it is not known whether the ability to productively engage the chemokine receptors in this way plays any direct role in acute viral entry and subsequent productive infection of the target cell.
# HIV = conditions: cited from earlier work
# From the text: as §1, with “cell. […] Since BSCIs, such as Peptide 3, ...” for “cell.”
# CXCR4 = target: T1, CXCR4 (Homo sapiens, UniProt P61073); assay: Specific binding of biotinylated gp120:V3(IIIb) peptide to Jurkat cells; conditions: 100 μM biotinylated gp120:V3(IIIb); various concentrations of inhibitor; 10^6 cells in 100 μl, 4°C; triplicate
# T1 construct: CXCR4, which is expressed on both THP-1 and Jurkat cells, but at higher levels on the T-cell line; endogenous in cells; host or cells: Jurkat T-cells (whole cells, 10^6 per well, 4°C)
# [2] = system: SDF-1α induced chemotaxis; assay: SDF-1α induced chemotaxis (ChemoTx transwell); format: cell-based; conditions: 100 ng/ml SDF1α; various concentrations of inhibitor in both compartments; 5 × 10^4 cells per well; 2 h, 37°C; MTT; triplicate
# Experimental: Figure 2 Effect of Peptide 3 on gp120:V3 loop peptide binding to cells. (a) The binding of 100 μM N-terminal biotinylated gp120:V3(IIIb) to THP-1 cells was measured in the presence of various concentrations of peptide 3. […] (b) Chemotaxis in response to 100 ng/ml SDF1α was measured in the presence of various concentrations of peptide 3. […] (e) As for (a) except that the effect of Peptide 3 on the binding of gp120:V3(BaL) to THP-1 cells was determined. (f) As for (b) except that the effect of Peptide 3 on chemotaxis induced by 25 ng/ml MIP1α was determined. All binding reactions were performed with 10^6 cells in 100 μl of binding medium at 4°C. Chemotaxis assays were performed with 5 × 10^4 cells per well. Values are mean ± SEM of triplicate determinations.
# Chemotaxis experiments were performed essentially as previously described, using the ChemoTx disposable 96-well transwell migration plates, with PVP-free membrane (6 μm pore size). Chemoattractant (lower compartment) and cells upper compartment) were suspended in Gey's Balanced salt solution + 1 mg/ml BSA. […] Migration was allowed to proceed for 2 hours at 37°C. […] Each condition was determined in triplicate, and the number of cells migrating in the absence of chemoattractant was subtracted to determine the chemokine-dependent chemotaxis which was reported.
# HIV strain MN = assay: HIV (MN) infection of THP-1 cells, p24gag immunofluorescence; format: cell-based, HIV-1; conditions: HIV strain MN; Peptide 3 100 μM, MIP1α 100 ng/ml, SDF1α 100 ng/ml; 72 h; p24gag immunofluorescence
# Experimental: However, it was possible to assess HIV infectivity of THP-1 cells using high sensitivity immunofluorescent detection of p24^gag. THP-1 cells were differentiated with hydrocortisone and PMA, then treated with TNFα, resulting in adherent monolayers on glass chamber slides. The THP-1 cells were then treated with either Peptide 3 (100 μM), MIP1α (100 ng/ml) or SDF1α (100 ng/ml) as for the Jurkat cells. THP-1 cells were infected with HIV strain MN at a concentration previously validated to produce easily detectable infection and grown for 72 h prior to fixation and staining for p24^gag. In contrast to the findings with HIV strain IIIb infection of Jurkat T cells, Peptide 3 inhibited infection of THP-1 cells by more than 80% (Fig 3c), very similar to the effect of MIP1α.
# THP-1 cells were differentiated prior to infection with hydrocortisone and PMA in 8-well chamber slides. Sixteen hours prior to infection, TNFα was added (100 ng/ml). Twelve hours later, the medium was aspirated and replaced with fresh medium containing the test peptides or chemokines as appropriate. After a further four hours, virus from the frozen stocks was adeed to the cells, which were the processed for immunofluoresence between 28 h and 72 h after infection.
# Jurkat cells following HIV infection were attached to 8-well chamber slides (Becton-Dickinson) by spinning the slides using a plate rotor in a Labofuge centrifuge (Heraeus) at 3,000 × g for 5 minutes. Attached Jurkat cells or THP-1 cells were then fixed by dipping the slides into ice-cold 70% ethanol for 90 seconds. Non-specific binding was blocked by incubation with 3% fatty acid-free BSA in TBS for 1 hour at room temprature. Cells were incubated with the mouse monoclonal anti-HIV-1 p24^gag antibody EH12E1 (ref 38;AIDS Reagent Program, NIBSC) at 10 μg/ml in 3% BSA in TBS at room temperature overnight. Unbound antibody was removed with 3 × 3 min washes in PBS, and bound antibody was then fixed to the slide by incubation with 3.8% phosphate buffered formalin pH7.2 for 10 mins at room temperature, followed by 3 further 3 min washes in PBS. Bound antibody was visualised using donkey anti-mouse IgG FITC conjugate (715-095-150; Jackson Immunoresearch) at 30 μg/ml in 3% BSA/TBS + 1 ng/ml Hoescht 33342 for 6 hours at room temperature. Twelve fields of view (100× magnification) were captured from each well of the chamber slide using an Olympus Provis AX electronic microscope connected to a Power Macintosh 8500, running OpenLab image analysis software (Improvision), under both FITC illumination conditions (NIBA filter block; λex = 470–490 nm, dichroic mirror = 505 nm, λem = 515–550 nm) and UV illumination conditions (Chroma 31000; λex = 340–380 nm, dichroic mirror = 400 nm, λem = 435–485 nm). Images were acquired with a Hamamatsu C4742-05 monochrome digital camera with 10-bit depth in a 1280-1024 pixel field connected to a DIG Snapper frame grabber. The exposure time, amplifier gain and offset values were controlled by the OpenLab software and were held constant throughout the experiment. A background (an image captured without a slide under the objective) was digitally subtracted from every image. A threshold was then applied to each image which was the lowest threhold that detected <1% of the pixels of an image of uninfected cells stained under identical conditions. The number of objects exceeding this threshold in each field of view were counted. […]
# HIV (IIIb) [3] = assay: HIV (IIIb) infection of Jurkat T-cells, p24gag immunofluorescence; format: cell-based; conditions: SDF1α 100 ng/ml, approximately 48 h after infection, 12 fields of view from each of two wells
# Experimental: HIV infection of Jurkat T-cells was also monitored by high sensitivity quantitative immunofluoresence detection of viral p24^gag expression. Jurkat cells were infected with HIV in the presence or absence of Peptide 3 (100 μM) or SDF1α (100 ng/ml) as described above. Approximately 48 h after infection, the cells were attached to glass slides using a cytospin and then fixed by immersion in ice-cold 70% ethanol for 90 seconds. Expression of p24^gag was determined using quantitative immunofluoresence as previously described, except that the primary antibody was post-fixed to the section using paraformaldehyde to increase the sensitivity of the technique (see Methods). Viral infectivity was expressed as the number of cells stained for p24^gag expressed as a proportion of the total number of cells (detected using Hoechst 33342 nuclear dye). […]
# Jurkat cells following HIV infection were attached to 8-well chamber slides (Becton-Dickinson) by spinning the slides using a plate rotor in a Labofuge centrifuge (Heraeus) at 3,000 × g for 5 minutes. […] A threshold was then applied to each image which was the lowest threhold that detected <1% of the pixels of an image of uninfected cells stained under identical conditions. The number of objects exceeding this threshold in each field of view were counted. […]
# HIV (IIIb) [4] = assay: HIV (IIIb) replication in Jurkat T-cells, supernatant reverse transcriptase activity; format: cell-based; conditions: HIV-1 IIIb, Jurkat; SDF1α 100 ng/ml; two weeks; average of six separate experiments
# Experimental: HIV infection of Jurkat T-cells using the laboratory-adapted T-tropic isolate IIIb was monitored using two different assays. Firstly, Jurkat T-cells in 96-well plates were pre-treated with either Peptide 3, vehicle (as a negative control) or SDF1α (as a positive control) for 4 hours, then exposed to HIV virus (10^6 TCID50) and pulsed at 2–3 day intervals with Peptide 3, SDF1α or medium alone as appropriate. After two weeks in culture, the extent of viral infection was assayed by measuring the reverse transcriptase activity in the supernatant, as a measure of viral replication in the culture In six separate experiments, Peptide 3 (100 μM) had no effect on virus replication following HIV exposure (Fig 3a), while SDF1α inhibited reverse transcriptase activity by an average of 75%. No effect was seen on cell viability under any of the treatment conditions.
# HIV-1 stocks were prepared in the following manner. HIV-1 IIIb (provided by the MRC AIDS Reagent Programme) was used to infect Jurkat T cells and the progression of infection was monitored using the reverse transcriptase assay for 10–14 days. […] Stocks of HIV-1 MN strain were prepared in a similar manner, except that H9 T cells were used and the progression of infection was monitored by immunofluoresence (because of the low RT activity) in this strain. […]
# [5] = system: chemokine-receptor-induced ERK activity; conditions: MEK inhibitor; ref [25]; cited from earlier work
# From the text: as §1
# T1 sequence (P61073 whole entry): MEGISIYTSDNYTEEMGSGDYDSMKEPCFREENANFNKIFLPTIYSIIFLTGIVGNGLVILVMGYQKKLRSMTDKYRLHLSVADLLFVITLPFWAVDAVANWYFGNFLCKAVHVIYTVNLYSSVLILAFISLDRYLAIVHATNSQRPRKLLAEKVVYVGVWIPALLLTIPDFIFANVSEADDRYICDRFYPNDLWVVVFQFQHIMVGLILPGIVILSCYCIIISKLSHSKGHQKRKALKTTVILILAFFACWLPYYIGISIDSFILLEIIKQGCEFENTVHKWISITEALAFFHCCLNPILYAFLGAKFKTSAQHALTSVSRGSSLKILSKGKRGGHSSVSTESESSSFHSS
molecule,measurement,setting,value
pertussis toxin,Effect on Gi-mediated signalling through chemokine receptors,[1],blocks
same,Effect on cellular infection with HIV in vitro,"HIV; ref [24] (Guntermann), [25] (Montes; similar results)",block cellular infection with HIV in vitro
"c1cc(CN2CCCNCCNCCCNCC2)ccc1CN1CCCNCCNCCCNCC1 [AMD3100, reference compound]",Effect on binding of gp120:V3(IIIb) to Jurkat cells,CXCR4,blocked
same,Effect on SDF-1α induced chemotaxis,[2],blocked
SDF1α [reference compound],Effect on HIV infection of THP-1 cells (in words),HIV strain MN,no statistically significant effect
same,Inhibition of viral infectivity (p24gag),HIV (IIIb) [3],more than 80%
same,Inhibition of reverse transcriptase activity,HIV (IIIb) [4],75%
N#CC(=C(/N)Sc1ccccc1N)/C(C#N)=C(/N)Sc1ccccc1N [Peptide U0126],Effect on chemokine-receptor-induced ERK activity,[5],block
same,Effect on HIV infection in vitro,"HIV; MEK inhibitor, ref [25]",block
"MIP1α: chemokine used at 100 ng/ml (protein, UniProt P10147 24-92, looked up) C-C motif chemokine 3: SLAADTPTACCFSYTSRQIPQNFIADYFETSSQCSKPGVIFLTKRSRQVCADPSEEWVQKYVSDLELSA",Effect on HIV infection of THP-1 cells (in words),HIV strain MN,very similar

# — paper PMC1082716, “Blockade of chemokine-induced signalling inhibits CCR5-dependent HIV infection in vitro without blocking gp120/CCR5 interaction” (Retrovirology, 2005)
